Assay results from the supplement of paper PMC11451515.

Legend:
Conditions in all cases: 48 h
[1] = test system: SEM cells; test: cell viability relative to DMSO control; higher = less cytotoxic
How it was run: (§1)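 Viability is a per-plate percentage relative to DMSO wells, with cell-free wells as background. CellTiter-Glo One luminescence was read after 48 h at 37°C on 1536-well plates (5 μl) of NOMO1 or SEM (500 cells/well) or P12-Ichikawa (1000 cells/well) leukemia cells. The cells had been adapted for at least four passages in each medium and pin-dosed with library compounds in DMSO from 47 μM to 0.79 nM in 11 threefold steps.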

[2] = test system: NOMO1; test: AUC of viability dose-response curve (% viability x log10 dose units); higher = less sensitive
How it was run: (§2)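 In 1536-well plates, leukemia cells adapted to each medium (500 or 1000 cells/well) were exposed for 48 h at 37°C to library compounds in DMSO across 11 threefold doses, 47 μM down to 0.79 nM. Viability was read by CellTiter-Glo One luminescence and normalised per plate to DMSO and cell-free wells. A four-parameter log-logistic fit over log10 doses was integrated by trapezoidal rule. This yielded the area under the curve, with over-full-viability curves scaled and quality-control failures dropped.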

[3] = test system: P12-Ichikawa; test: as above
How it was run: as §2

[4] = test system: SEM cells; test: as above
How it was run: as §2

[5] = test system: NOMO1; test: cell viability relative to DMSO control; higher = less cytotoxic
How it was run: as §1

[6] = test system: P12-Ichikawa; test: as above
How it was run: as §1

CCn1cc(-c2ccnc3[nH]c(-c4cccc(CN(C)C)c4)cc23)c(-c2ccc(NC(=O)N(C)C)cc2)n1
[1], HPLM + 10% dialyzed FBS
Conditions	cell viability [%]
0.000781 µM	123
0.00234 µM	112
0.00702 µM	135
0.0211 µM	138
0.0632 µM	79.6
0.19 µM	52.5
0.569 µM	44.8
1.71 µM	48.9
5.12 µM	41.6
15.4 µM	19.4
46.1 µM	9.33

AUC of viability dose-response curve
Conditions	[2]	[3]	[4]
HPLM + 10% dialyzed FBS	375	220	271
RPMI 5 mM glucose + 10% FBS	318	234	224
RPMI 5 mM glucose + 10% dialyzed FBS	323	252	233

CC(=O)O[C@@]1(CC[C@H]2[C@@H]3\C=C(Cl)/C4=C/C(=O)[C@@H]5C[C@@H]5[C@]4(C)[C@H]3CC[C@]12C)C(C)=O
cell viability [%]
Conditions	[1]	[5]
HPLM + 10% dialyzed FBS, 0.000781 µM	111	95.1
HPLM + 10% dialyzed FBS, 0.00234 µM	120	124
HPLM + 10% dialyzed FBS, 0.00702 µM	126	140
HPLM + 10% dialyzed FBS, 0.0211 µM	125	137
HPLM + 10% dialyzed FBS, 0.0632 µM	131	133
HPLM + 10% dialyzed FBS, 0.19 µM	130	135
HPLM + 10% dialyzed FBS, 0.569 µM	128	114
HPLM + 10% dialyzed FBS, 1.71 µM	131	66.4
HPLM + 10% dialyzed FBS, 5.12 µM	136	36
HPLM + 10% dialyzed FBS, 15.4 µM	134	38.5
HPLM + 10% dialyzed FBS, 46.1 µM	127	34.5
RPMI 5 mM glucose + 10% FBS, 0.000781 µM	115	–
RPMI 5 mM glucose + 10% FBS, 0.00234 µM	115	–
RPMI 5 mM glucose + 10% FBS, 0.00702 µM	126	–
RPMI 5 mM glucose + 10% FBS, 0.0211 µM	119	–
RPMI 5 mM glucose + 10% FBS, 0.0632 µM	118	–
RPMI 5 mM glucose + 10% FBS, 0.19 µM	144	–
RPMI 5 mM glucose + 10% FBS, 0.569 µM	128	–
RPMI 5 mM glucose + 10% FBS, 1.71 µM	116	–
RPMI 5 mM glucose + 10% FBS, 5.12 µM	120	–
RPMI 5 mM glucose + 10% FBS, 15.4 µM	135	–
RPMI 5 mM glucose + 10% FBS, 46.1 µM	135	–

AUC of viability dose-response curve
Conditions	HPLM + 10% dialyzed FBS	RPMI 5 mM glucose + 10% FBS	RPMI 5 mM glucose + 10% dialyzed FBS
[2]	364	322	360
[4]	464	450	442

COCCOc1ccc2c(c1)ncn2-c1ccc2cccc(N3CCC(N)CC3)c2n1
cell viability [%], [1]
Conditions	HPLM + 10% dialyzed FBS	RPMI 5 mM glucose + 10% FBS	RPMI 5 mM glucose + 10% dialyzed FBS
0.000781 µM	83.8	99.7	112
0.00234 µM	77.9	115	101
0.00702 µM	70.3	109	72.2
0.0211 µM	59.8	67.6	65.2
0.0632 µM	52.5	58.7	51.3
0.19 µM	51.6	47.8	46.1
0.569 µM	46.6	50.9	44.6
1.71 µM	42.5	44.1	41.8
5.12 µM	21.7	25.8	23.7
15.4 µM	12.8	12.3	13.1
46.1 µM	4.13	3.44	3.97

AUC of viability dose-response curve
Conditions	HPLM + 10% dialyzed FBS	RPMI 5 mM glucose + 10% FBS	RPMI 5 mM glucose + 10% dialyzed FBS
[2]	394	418	405
[3]	377	405	394

C[S+](=O)([O-])c1cc(F)cc2c3c(n(Cc4ccc(Cl)cc4)c12)[C@@H](CC(=O)O)CC3
AUC of viability dose-response curve
Conditions	HPLM + 10% dialyzed FBS	RPMI 5 mM glucose + 10% FBS	RPMI 5 mM glucose + 10% dialyzed FBS
[3]	466	451	467
[4]	477	468	461

c1ccc(CCCN2CCN(CCOC(c3ccccc3)c3ccccc3)CC2)cc1
cell viability [%]
Conditions	[1]	[5]	[6]
HPLM + 10% dialyzed FBS, 0.000781 µM	27.6	91.4	89.2
HPLM + 10% dialyzed FBS, 0.00234 µM	98.3	95.1	90.8
HPLM + 10% dialyzed FBS, 0.00702 µM	99.1	101	104
HPLM + 10% dialyzed FBS, 0.0211 µM	103	100	95.5
HPLM + 10% dialyzed FBS, 0.0632 µM	97.9	85	99.2
HPLM + 10% dialyzed FBS, 0.19 µM	104	100	91.3
HPLM + 10% dialyzed FBS, 0.569 µM	87.4	92.9	89.7
HPLM + 10% dialyzed FBS, 1.71 µM	99.9	103	87.5
HPLM + 10% dialyzed FBS, 5.12 µM	87.1	83.1	91.6
HPLM + 10% dialyzed FBS, 15.4 µM	33.9	78.9	77.3
HPLM + 10% dialyzed FBS, 46.1 µM	44.6	53.9	67.3
RPMI 5 mM glucose + 10% FBS, 0.000781 µM	69.2	80.3	91.4
RPMI 5 mM glucose + 10% FBS, 0.00234 µM	106	83.3	97.1
RPMI 5 mM glucose + 10% FBS, 0.00702 µM	104	96	94.4
RPMI 5 mM glucose + 10% FBS, 0.0211 µM	98	99.5	94.5
RPMI 5 mM glucose + 10% FBS, 0.0632 µM	91.7	94.9	93.9
RPMI 5 mM glucose + 10% FBS, 0.19 µM	85.9	90.3	94
RPMI 5 mM glucose + 10% FBS, 0.569 µM	102	85.6	98.2
RPMI 5 mM glucose + 10% FBS, 1.71 µM	89	76.1	90.2
RPMI 5 mM glucose + 10% FBS, 5.12 µM	91	83.3	92.3
RPMI 5 mM glucose + 10% FBS, 15.4 µM	19.2	78	78.4
RPMI 5 mM glucose + 10% FBS, 46.1 µM	61.8	73.8	55
RPMI 5 mM glucose + 10% dialyzed FBS, 0.000781 µM	78.9	89.3	83.7
RPMI 5 mM glucose + 10% dialyzed FBS, 0.00234 µM	103	97.3	88.3
RPMI 5 mM glucose + 10% dialyzed FBS, 0.00702 µM	114	92.7	88
RPMI 5 mM glucose + 10% dialyzed FBS, 0.0211 µM	100	96.5	91.4
RPMI 5 mM glucose + 10% dialyzed FBS, 0.0632 µM	99.4	89.7	94.1
RPMI 5 mM glucose + 10% dialyzed FBS, 0.19 µM	96	92.5	85
RPMI 5 mM glucose + 10% dialyzed FBS, 0.569 µM	73	85.5	94.7
RPMI 5 mM glucose + 10% dialyzed FBS, 1.71 µM	96.5	86.2	87.1
RPMI 5 mM glucose + 10% dialyzed FBS, 5.12 µM	92.5	86.3	88.5
RPMI 5 mM glucose + 10% dialyzed FBS, 15.4 µM	23	66.8	75.2
RPMI 5 mM glucose + 10% dialyzed FBS, 46.1 µM	50.5	24.3	38.3

AUC of viability dose-response curve
Conditions	HPLM + 10% dialyzed FBS	RPMI 5 mM glucose + 10% FBS	RPMI 5 mM glucose + 10% dialyzed FBS
[2]	434	409	405
[3]	431	432	406

COC(c1ccccc1)(c1ccccc1)[C@H](Oc1nc(C)cc(C)n1)C(=O)O
[1], RPMI 5 mM glucose + 10% dialyzed FBS
Conditions	cell viability [%]
0.000781 µM	115
0.00234 µM	134
0.00702 µM	122
0.0211 µM	139
0.0632 µM	177
0.19 µM	160
0.569 µM	167
1.71 µM	152
5.12 µM	140
15.4 µM	133
46.1 µM	85.1

AUC of viability dose-response curve
Conditions	[2]	[3]	[4]
HPLM + 10% dialyzed FBS	444	464	462
RPMI 5 mM glucose + 10% FBS	452	465	466
RPMI 5 mM glucose + 10% dialyzed FBS	467	464	463
